ChEMBL document CHEMBL1201862, “PubChem BioAssay data set” (2004)
Active and inactive are the calls of the source.

Key:
Vero [1] = assay: cells; assay type: functional, cell-based; settings: Chlorocebus sabaeus
[2] = target: Transitional endoplasmic reticulum ATPase (Homo sapiens, UniProt P55072, C522A); assay: C522A mutant p97 ATPase inhibitors, dose response, counter-screen for p97 inhibitor project, biochemical, luminescence (AID 1544)
[3] = A cytotoxicity screen of small molecule inhibitors of the PhoP region in Salmonella typhi identified in the primary screen. [Related pubchem assays: 1850, 1864, 1985 ]; assay type: functional
[4] = target: Transitional endoplasmic reticulum ATPase (Homo sapiens, UniProt P55072); assay: p97 ATPase inhibitors, dose response, biochemical (AID 1534)
Sequence of Transitional endoplasmic reticulum ATPase (Homo sapiens, UniProt P55072) (P55072 whole entry): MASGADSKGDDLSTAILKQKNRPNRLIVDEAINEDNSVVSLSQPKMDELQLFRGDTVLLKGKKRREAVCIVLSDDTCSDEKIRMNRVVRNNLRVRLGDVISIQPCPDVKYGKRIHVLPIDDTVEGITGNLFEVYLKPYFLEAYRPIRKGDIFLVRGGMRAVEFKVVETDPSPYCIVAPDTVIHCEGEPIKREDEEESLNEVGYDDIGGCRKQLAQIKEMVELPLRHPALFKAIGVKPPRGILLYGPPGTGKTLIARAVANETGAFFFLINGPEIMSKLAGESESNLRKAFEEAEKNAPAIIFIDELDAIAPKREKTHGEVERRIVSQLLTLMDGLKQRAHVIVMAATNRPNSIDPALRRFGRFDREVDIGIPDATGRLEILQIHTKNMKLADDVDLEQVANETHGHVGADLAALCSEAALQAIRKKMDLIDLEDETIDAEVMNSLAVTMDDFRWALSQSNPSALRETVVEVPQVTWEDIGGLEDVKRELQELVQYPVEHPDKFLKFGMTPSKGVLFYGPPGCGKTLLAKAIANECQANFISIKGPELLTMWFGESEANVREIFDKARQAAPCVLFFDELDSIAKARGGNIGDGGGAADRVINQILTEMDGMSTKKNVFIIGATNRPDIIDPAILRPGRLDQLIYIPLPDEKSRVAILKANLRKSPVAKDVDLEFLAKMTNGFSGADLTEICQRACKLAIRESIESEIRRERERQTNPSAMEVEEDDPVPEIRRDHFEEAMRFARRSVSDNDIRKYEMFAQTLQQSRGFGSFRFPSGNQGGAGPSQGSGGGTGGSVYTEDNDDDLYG

[5] = target: T1, Intestinal-type alkaline phosphatase (Homo sapiens, UniProt P09923); assay: inhibition of human intestinal alkaline phosphatase – biochemical, luminescent, uHTS hits, set 2, dose response (AID 488793); assay type: functional
T1 sequence (P09923 whole entry): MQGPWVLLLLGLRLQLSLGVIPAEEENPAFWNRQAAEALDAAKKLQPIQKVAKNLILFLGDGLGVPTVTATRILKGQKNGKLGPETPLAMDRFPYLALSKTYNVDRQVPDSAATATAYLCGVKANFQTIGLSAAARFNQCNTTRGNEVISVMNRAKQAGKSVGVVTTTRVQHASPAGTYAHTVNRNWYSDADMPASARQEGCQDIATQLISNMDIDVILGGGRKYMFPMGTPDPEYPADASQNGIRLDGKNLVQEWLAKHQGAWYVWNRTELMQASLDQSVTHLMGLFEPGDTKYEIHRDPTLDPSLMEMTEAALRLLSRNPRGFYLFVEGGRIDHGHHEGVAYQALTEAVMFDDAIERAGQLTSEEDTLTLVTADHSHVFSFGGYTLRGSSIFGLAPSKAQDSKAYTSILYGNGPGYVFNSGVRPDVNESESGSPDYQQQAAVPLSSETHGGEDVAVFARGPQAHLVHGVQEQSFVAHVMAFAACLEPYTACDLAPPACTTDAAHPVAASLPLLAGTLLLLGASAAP

[6] = target: Photoreceptor-specific nuclear receptor (Homo sapiens, UniProt Q9Y5X4); assay type: functional;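 note: potency for compounds that break the NR2E3 corepressor complex and count as activators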
[7] = target: T2, Alkaline phosphatase, tissue-nonspecific isozyme (Homo sapiens, UniProt P05186); assay: activation of tissue-nonspecific alkaline phosphatase – biochemical, TNAP isozyme, human IAP uHTS hits, selectivity assay for human IAP activator project, dose response (AID 488886); assay type: functional;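 note: potency of compounds raising TNAP activity as a selectivity check on IAP activators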
T2 sequence (P05186 whole entry): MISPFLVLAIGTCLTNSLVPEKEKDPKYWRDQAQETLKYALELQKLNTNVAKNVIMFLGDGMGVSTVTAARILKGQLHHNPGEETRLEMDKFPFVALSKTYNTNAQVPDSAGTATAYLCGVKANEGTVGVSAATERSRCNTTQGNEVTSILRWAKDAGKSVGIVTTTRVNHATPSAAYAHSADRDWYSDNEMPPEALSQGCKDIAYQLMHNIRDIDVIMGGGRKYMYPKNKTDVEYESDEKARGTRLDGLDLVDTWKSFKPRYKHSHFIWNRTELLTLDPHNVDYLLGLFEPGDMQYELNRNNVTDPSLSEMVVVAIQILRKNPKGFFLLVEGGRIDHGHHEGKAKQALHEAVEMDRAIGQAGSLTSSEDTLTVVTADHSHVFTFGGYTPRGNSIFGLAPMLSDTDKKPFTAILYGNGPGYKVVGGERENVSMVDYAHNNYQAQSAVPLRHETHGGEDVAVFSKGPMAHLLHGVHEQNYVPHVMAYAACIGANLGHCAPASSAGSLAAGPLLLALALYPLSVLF

[8] = target: Peroxisome proliferator-activated receptor gamma/Nuclear receptor corepressor 2 (Homo sapiens, UniProt P37231+Q9Y618); assay type: functional
[9] = target: T1, Intestinal-type alkaline phosphatase; assay: Dose Response confirmation of uHTS hits from a small molecule inhibitors of human intestinal alkaline phosphatase via a luminescent assay. [Related pubchem assays (depositor defined):AID2544, AID2574]; assay type: functional
[10] = target: Intestinal-type alkaline phosphatase (Mus musculus, UniProt P24822); assay: PubChem AID 488874; assay type: functional
Large T antigen = Large T antigen (Simian virus 40, UniProt P03070); assay type: functional, Betapolyomavirus macacae;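 note: Confirmatory-stage PubChem screen for compounds that inhibit SV40 T antigen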
[11] = target: T3, Eukaryotic translation initiation factor 2-alpha kinase 3 (Homo sapiens, UniProt Q9NZJ5); assay: Counterscreen assay for PERK inhibitors: Dose response cell-based high throughput screening assay to measure inhibition of PERK at 6 hours. [Related pubchem assays: 1522, 1416 ]; assay type: functional
T3 sequence (Q9NZJ5 whole entry): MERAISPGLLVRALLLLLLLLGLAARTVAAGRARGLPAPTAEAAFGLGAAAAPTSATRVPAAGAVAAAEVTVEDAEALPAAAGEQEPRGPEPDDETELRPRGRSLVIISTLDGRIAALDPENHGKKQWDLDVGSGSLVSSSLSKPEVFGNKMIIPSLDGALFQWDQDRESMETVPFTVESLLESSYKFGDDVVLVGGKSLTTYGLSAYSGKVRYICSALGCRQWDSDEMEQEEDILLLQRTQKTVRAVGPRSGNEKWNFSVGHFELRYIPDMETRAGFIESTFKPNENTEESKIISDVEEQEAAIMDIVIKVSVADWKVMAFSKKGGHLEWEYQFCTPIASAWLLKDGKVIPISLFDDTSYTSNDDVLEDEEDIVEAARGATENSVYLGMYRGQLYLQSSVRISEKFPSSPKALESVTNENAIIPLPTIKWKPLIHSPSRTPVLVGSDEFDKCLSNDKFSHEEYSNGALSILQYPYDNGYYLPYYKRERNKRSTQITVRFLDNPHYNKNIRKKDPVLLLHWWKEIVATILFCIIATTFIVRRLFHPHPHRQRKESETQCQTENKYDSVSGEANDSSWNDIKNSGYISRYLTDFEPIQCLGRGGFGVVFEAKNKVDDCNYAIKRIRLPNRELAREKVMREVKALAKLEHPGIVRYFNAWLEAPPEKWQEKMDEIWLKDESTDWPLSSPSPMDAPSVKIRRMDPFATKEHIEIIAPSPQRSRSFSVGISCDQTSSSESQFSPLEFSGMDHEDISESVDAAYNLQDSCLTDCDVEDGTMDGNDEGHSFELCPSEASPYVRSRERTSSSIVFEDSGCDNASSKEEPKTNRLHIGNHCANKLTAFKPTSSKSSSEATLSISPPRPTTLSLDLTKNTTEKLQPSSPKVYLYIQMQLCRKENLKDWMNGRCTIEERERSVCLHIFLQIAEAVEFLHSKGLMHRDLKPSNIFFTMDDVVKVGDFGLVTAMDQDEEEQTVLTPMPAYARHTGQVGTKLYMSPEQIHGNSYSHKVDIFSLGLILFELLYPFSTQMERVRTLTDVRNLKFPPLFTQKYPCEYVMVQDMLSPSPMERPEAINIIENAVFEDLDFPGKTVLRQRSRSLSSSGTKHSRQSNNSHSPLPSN

[12] = target: T3, Eukaryotic translation initiation factor 2-alpha kinase 3; assay: Dose response cell-based high-throughput screening assay to measure PERK inhibition. [Related pubchem assays: 1416 ]; assay type: functional
Vibrio harveyi [13] = assay: Quorum Sensing, LuxS, LuxPQ Measured in Microorganism System Using Plate Reader - 2035-01_Inhibitor_DoseNoFile_DryPowder_Activity. [Related pubchem assays (depositor defined):AID2106]; assay type: functional, organism-based
Vibrio harveyi [14] = assay: LuxS/LuxPQ-dependent luminescence inhibition, V. harveyi – dry powder, set 2, dose response (AID 493072); assay type: functional, organism-based
Vero [15] = assay: host cell viability loss, Vero E6 – synthesized analogs, cytotoxicity control for West Nile virus antiviral project, SAR follow-up (AID 2244); assay type: functional; settings: Chlorocebus sabaeus
Vero [16] = assay: Vero 76 cell viability after compound exposure – Vero 76 cells, synthesized analogs, cytotoxicity control for West Nile virus antiviral project, SAR follow-up (AID 2414); assay type: functional; settings: Chlorocebus sabaeus
Vero [17] = assay: Vero cell viability after compound exposure – synthesized analogs, set II, cytotoxicity control for West Nile virus antiviral project, SAR follow-up (AID 2402); assay type: functional; settings: Chlorocebus sabaeus
Chaperone protein dnaK = Chaperone protein dnaK (Escherichia coli, UniProt C3TRK2); assay: E. coli DnaK binders, calorimetric Kd – biophysical, isothermal titration calorimetry, beta-domain, full-length DnaK, orthogonal assay for DnaK modulator project, SAR follow-up (AID 1495)
Bcl-2-related protein A1 [18] = target: T4, Bcl-2-related protein A1 (Mus musculus, UniProt Q07440); assay: displacement of Bid BH3 peptide from Bfl-1 – biochemical, fluorescence polarization, FITC-Bid, mouse, primary screen (AID 432)
T4 sequence (Q07440 whole entry): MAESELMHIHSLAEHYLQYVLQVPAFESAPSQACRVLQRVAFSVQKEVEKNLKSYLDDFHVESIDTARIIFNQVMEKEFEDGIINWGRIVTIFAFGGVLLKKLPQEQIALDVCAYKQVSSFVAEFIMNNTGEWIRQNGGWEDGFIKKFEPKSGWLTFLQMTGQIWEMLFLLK

Protein Rev = Protein Rev (Human immunodeficiency virus type 1 group M subtype B (isolate WMJ22)(HIV-1), UniProt P05866); assay: inhibitors of Rev protein–RRE RNA complex – biochemical, protein-RNA interaction, dose response (AID 842); design: species or system Human immunodeficiency virus 1
Sequence of Protein Rev (P05866 whole entry): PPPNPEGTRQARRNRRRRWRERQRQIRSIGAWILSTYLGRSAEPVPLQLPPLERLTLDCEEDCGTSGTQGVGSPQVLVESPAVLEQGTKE

[19] = target: T5, Calpain-2 catalytic subunit (Sus scrofa, UniProt P43367); assay: m-calpain protease blockers, concentration series – biochemical, fluorogenic peptide substrate, dose response (AID 1420); assay type: functional
T5 sequence (P43367 whole entry): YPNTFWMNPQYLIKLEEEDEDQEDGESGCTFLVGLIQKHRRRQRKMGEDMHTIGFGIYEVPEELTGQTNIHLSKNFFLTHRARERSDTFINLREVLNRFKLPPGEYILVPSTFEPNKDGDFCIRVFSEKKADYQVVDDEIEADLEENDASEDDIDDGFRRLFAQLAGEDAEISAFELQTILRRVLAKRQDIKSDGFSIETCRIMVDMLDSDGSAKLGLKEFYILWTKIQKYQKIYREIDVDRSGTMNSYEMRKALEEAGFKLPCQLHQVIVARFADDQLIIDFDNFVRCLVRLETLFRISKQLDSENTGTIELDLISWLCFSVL

Bcl-2-related protein A1 [20] = target: T4, Bcl-2-related protein A1; assay: small-molecule antagonists of Bfl-1/BH3 interaction – biochemical, TR-FRET, mouse Bfl-1, confirmation (AID 621);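 note: TR-FRET binding of GST-Bfl-1 to FITC-labelled Bid peptide via terbium antibody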
Cytochrome P450 3A4 = Cytochrome P450 3A4 (Homo sapiens, UniProt P08684); settings: Potency;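 note: confirmatory qHTS run detecting inhibitors and substrates of CYP3A4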
Streptococcus [21] = assay: GAS UMAA2166 growth inhibition – luminescence, BacTiterGlo, counter-screen for streptokinase expression inhibitor project, dose response (AID 1915); assay type: functional, organism-based;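 note: potency for reduction of bacterial viability or growth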
Streptokinase A = target: T6, Streptokinase A (Streptococcus pyogenes serotype M1, UniProt P10520); assay: viability-normalized secreted streptokinase activity reduction – plasminogen activation absorbance, OD405, dose response (AID 1914); assay type: functional, Streptococcus pyogenes M1 GAS;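 note: secreted streptokinase activity via plasminogen activation per viability signal from cell pellet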
T6 sequence (P10520 whole entry): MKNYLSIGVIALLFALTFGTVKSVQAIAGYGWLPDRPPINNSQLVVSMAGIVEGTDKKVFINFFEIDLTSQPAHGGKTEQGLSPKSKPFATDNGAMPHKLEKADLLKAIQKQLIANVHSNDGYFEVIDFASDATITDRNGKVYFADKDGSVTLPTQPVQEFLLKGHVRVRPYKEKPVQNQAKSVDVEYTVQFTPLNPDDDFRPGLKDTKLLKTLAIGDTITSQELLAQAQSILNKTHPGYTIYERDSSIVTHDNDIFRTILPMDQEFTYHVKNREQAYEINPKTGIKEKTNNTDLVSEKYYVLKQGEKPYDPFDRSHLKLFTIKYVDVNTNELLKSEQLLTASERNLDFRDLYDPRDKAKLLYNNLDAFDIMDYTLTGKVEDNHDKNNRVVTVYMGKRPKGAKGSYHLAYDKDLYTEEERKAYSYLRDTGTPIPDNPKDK

[22] = alpha-synuclein stem-loop luciferase translation blockers – H4 neuroglioma cells, luminescence, confirmation (AID 1988); assay type: functional, cell-based
Streptococcus [23] = assay: Luminescence Microorganism-Based Dose Response Follow up to Identify Compounds Cytotoxic to Streptococcus. [Related pubchem assays: 1677 (Project Summary), 1915, 1914, 1902 (Retest at Dose), 1900 (Counter Screen), 1662 (Primary HTS)]; assay type: functional, organism-based
[24] = luciferase reporter signal suppression in cells – H4 neuroglioma cells, luminescence, dose response (AID 1990); assay type: functional, cell-based
[25] = system: Streptococcus sp. 'group A'; assay: Streptococcus pyogenes SK(-)GAS viability under kanamycin – luminescence, BacTiterGlo, confirmation, counter-screen for streptokinase expression inhibitor project, dose response (AID 1900); assay type: functional, organism-based; settings: read-out: EC50
[26] = Luminescence Cell-Based Dose Response HTS to Identify Inhibitors of 5'UTR Stem-Loop Driven Prion Protein mRNA Translation in H4 Neuroglioblastoma Cells. [Related pubchem assays: 1827 (Project Summary), 1813 (Primary HTS)]; assay type: functional
Cytochrome P450 2D6 [27] = target: T7, Cytochrome P450 2D6 (Homo sapiens, UniProt P10635)
T7 sequence (P10635 whole entry): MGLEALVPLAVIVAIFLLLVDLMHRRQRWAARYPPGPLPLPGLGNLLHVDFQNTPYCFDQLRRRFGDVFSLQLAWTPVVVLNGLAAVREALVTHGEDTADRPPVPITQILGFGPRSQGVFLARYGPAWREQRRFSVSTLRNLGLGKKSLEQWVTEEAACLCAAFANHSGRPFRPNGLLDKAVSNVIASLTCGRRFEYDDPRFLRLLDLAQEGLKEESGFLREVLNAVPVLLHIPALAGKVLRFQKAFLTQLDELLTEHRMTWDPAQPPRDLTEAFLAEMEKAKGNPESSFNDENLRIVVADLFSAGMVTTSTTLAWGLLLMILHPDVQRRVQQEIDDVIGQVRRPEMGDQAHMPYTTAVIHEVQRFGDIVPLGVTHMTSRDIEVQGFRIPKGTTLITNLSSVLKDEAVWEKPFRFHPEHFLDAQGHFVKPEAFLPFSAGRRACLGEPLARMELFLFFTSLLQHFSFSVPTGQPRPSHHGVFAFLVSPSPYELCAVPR

Cytochrome P450 2C9 [28] = target: T8, Cytochrome P450 2C9 (Homo sapiens, UniProt P11712); settings: Potency
T8 sequence (P11712 whole entry): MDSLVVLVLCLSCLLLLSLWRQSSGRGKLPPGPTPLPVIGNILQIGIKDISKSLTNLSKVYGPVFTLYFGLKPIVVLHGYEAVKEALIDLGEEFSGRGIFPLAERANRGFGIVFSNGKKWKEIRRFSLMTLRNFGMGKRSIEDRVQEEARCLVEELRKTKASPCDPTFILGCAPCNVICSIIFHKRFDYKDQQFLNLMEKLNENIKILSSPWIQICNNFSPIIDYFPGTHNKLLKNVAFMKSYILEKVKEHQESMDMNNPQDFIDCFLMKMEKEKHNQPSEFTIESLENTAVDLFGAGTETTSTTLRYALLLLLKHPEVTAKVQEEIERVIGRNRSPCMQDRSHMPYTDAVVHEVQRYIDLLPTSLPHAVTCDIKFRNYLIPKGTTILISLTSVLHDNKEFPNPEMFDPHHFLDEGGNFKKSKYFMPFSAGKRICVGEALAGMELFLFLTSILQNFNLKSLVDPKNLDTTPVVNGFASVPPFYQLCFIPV

Cytochrome P450 2C19 = Cytochrome P450 2C19 (Homo sapiens, UniProt P33261); assay: Cytochrome panel assay with activity outcomes. Panel member name: p450-cyp2c19 Compounds with AC50 equal or less than 10 uM are considered active; assay type: functional; settings: read-out: AC50
Sequence of Cytochrome P450 2C19 (P33261 whole entry): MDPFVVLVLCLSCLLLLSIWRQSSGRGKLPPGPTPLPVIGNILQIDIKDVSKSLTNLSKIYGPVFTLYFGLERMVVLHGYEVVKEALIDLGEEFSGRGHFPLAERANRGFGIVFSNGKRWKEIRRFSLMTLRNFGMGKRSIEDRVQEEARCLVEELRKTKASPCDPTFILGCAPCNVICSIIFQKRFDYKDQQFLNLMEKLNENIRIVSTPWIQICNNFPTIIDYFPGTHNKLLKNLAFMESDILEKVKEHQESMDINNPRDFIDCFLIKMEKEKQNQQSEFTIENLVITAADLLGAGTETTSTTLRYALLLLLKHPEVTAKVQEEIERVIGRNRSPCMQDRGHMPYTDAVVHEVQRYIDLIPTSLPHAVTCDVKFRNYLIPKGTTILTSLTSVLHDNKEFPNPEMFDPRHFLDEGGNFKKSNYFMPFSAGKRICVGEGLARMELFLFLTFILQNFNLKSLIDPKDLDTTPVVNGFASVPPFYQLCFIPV

Cytochrome P450 1A2 = target: T9, Cytochrome P450 1A2 (Homo sapiens, UniProt P05177);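 note: PubChem cytochrome P450 panel assay, CYP1A2 panel member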
T9 sequence (P05177 whole entry): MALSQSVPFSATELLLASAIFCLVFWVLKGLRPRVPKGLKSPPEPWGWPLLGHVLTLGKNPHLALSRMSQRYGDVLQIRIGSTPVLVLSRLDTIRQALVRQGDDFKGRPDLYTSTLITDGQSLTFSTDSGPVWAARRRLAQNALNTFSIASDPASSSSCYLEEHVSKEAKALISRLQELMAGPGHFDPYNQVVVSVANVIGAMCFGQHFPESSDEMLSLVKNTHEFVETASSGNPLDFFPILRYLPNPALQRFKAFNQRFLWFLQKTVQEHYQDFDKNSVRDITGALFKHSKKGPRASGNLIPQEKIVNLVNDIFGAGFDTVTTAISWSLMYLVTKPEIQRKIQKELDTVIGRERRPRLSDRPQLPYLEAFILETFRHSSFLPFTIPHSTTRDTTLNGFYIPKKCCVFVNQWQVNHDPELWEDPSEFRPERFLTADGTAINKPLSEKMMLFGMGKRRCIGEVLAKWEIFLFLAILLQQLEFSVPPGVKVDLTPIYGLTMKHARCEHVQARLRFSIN

Cytochrome P450 2D6 [29] = target: T7, Cytochrome P450 2D6; assay: qHTS Assay for Inhibitors and Substrates of Cytochrome P450 2D6. [Related pubchem assays: 410 ]; assay type: ADME; settings: read-out: Potency
Cytochrome P450 2C9 [30] = target: T8, Cytochrome P450 2C9

Sequence of Transitional endoplasmic reticulum ATPase (Homo sapiens, UniProt P55072, C522A) (P55072 2-806 C522A limits assumed): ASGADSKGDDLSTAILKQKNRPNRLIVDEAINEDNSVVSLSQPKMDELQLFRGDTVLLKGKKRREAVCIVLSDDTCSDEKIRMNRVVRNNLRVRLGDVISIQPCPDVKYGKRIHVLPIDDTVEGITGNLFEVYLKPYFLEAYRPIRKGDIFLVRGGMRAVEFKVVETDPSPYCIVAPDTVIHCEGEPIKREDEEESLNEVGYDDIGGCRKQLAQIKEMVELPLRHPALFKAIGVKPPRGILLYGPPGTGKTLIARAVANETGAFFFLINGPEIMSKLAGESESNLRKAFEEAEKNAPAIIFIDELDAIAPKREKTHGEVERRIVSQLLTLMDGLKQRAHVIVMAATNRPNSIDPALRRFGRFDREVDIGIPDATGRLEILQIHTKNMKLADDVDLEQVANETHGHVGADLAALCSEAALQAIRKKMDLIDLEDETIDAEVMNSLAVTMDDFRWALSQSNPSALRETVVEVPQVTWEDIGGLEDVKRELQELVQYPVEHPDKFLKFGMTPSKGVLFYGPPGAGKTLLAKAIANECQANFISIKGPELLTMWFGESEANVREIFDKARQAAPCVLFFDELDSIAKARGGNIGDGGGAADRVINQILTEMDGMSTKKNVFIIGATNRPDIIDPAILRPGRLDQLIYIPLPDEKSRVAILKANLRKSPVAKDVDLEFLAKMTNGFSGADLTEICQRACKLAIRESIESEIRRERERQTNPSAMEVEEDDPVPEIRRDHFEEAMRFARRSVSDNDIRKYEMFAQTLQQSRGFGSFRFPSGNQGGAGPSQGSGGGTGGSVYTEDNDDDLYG

For `[O-][n+]1onc2c1CCc1[nH]c(-c3ccccc3)nc1-2`, the IC50 (Vero [1]) was 14 µM (active), the IC50 [2] was > 50 µM (not active) and the EC50 [3] was > 50 µM (active). For the same compound, the IC50 [4] was > 50 µM (not active).
For `O=c1c2cc(O)c(O)cc2oc2cc(O)c(C3OC(CO)C(O)C(O)C3O)c(O)c12` (stereo not drawn), the IC50 [5] was 0.262 µM (active), the IC50 [6] was > 39.8 µM (not active) and the EC50 [7] was > 100 µM (inactive). The IC50 [8] was > 39.8 µM (not active), the IC50 [9] was 1.19 µM (active) and the IC50 [10] was 14 µM (active). For the same compound, the IC50 (Large T antigen) was 8.63 µM (active).
For `COc1ccc(/C=C/C(=O)N[C@@H](C)C(=O)O)cc1`, the EC50 [11] was > 55.7 µM (not active) and the EC50 [12] was > 55.7 µM (not active).
With `Cc1cccc(NS(=O)(=O)c2ccc(Oc3ccccc3)cc2)n1` the AC50 (Vibrio harveyi [13]) was 2.4 µM (active), the AC50 (Vibrio harveyi [14]) was 4.9 µM (active) and the AC50 (Vibrio harveyi [14]; Vibrio harveyi) was 5.99 µM (active).
In the case of `O=c1c2cc(Br)ccc2nc2n1CC/C2=C/c1ccccc1`, the CC50 (Vero [15]) is reported as > 40 µM (active), the CC50 (Vero [16]) is reported as > 66.6 µM (active) and the CC50 (Vero [17]) is reported as 33.3 µM (active).
With `Nc1ccc2c(ccn2C(=O)c2cccs2)c1` the Kd (Chaperone protein dnaK) was 3.4 µM (active).
In the case of `COc1cccc(OC)c1-c1nn2c(-c3cc(-c4ccccc4)n[nH]3)nnc2s1`, the IC50 (Bcl-2-related protein A1 [18]) is reported as 14.1 µM (active), the IC50 (Protein Rev) is reported as > 79.4 µM (not active) and the IC50 [19] is reported as > 50 µM (not active). For the same compound, the IC50 (Bcl-2-related protein A1 [20]) was > 100 µM (not active).
In the case of `COCCN(CCOC)c1nc(C)nc2c1nc(-c1ccccc1)n2CCN(C)C`, the AC50 (Cytochrome P450 3A4) is reported as 15.8 µM (inconclusive).
With `Cc1cccc(C)c1Oc1nc(-c2ccccc2)ncc1S(=O)(=O)c1ccccc1` the EC50 (Streptococcus [21]) was > 150 µM (not active), the EC50 (Streptokinase A) was 3.99 µM (active) and the EC50 [22] was 16.9 µM (active). For the same compound, the EC50 (Streptococcus [23]) was > 500 µM (not active), the EC50 [24] was 13.2 µM (active) and the EC50 [25] was 44.1 µM (active). The EC50 [26] was 29.8 µM (active).
For `O=C(CCNNC(=O)c1ccncc1)NCc1ccccc1` [NIALAMIDE], the AC50 (Cytochrome P450 2D6 [27]) was 7.94 µM (inconclusive), the AC50 (Cytochrome P450 2C9 [28]) was 25.1 µM (inconclusive) and the AC50 (Cytochrome P450 2C19) was 10 µM (inconclusive). For the same compound, the AC50 (Cytochrome P450 1A2) was 12.6 µM (inconclusive), the AC50 (Cytochrome P450 2D6 [29]) was 25.1 µM (inconclusive) and the AC50 (Cytochrome P450 2C9 [30]) was 10 µM (inconclusive).
